Experimental findings from patent publication US20250066380A1, “NOVEL FURANO-NAPHTHOQUINONE AND NOVEL PYRAZINONE COMPOUNDS FROM AMYCOLATOPSIS AND ACTIVITIES THEREOF” (COUNCIL OF SCIENTIFIC AND INDUSTRIAL RESEARCH (AN INDIAN …, priority 2022, published 2025) are described below.

As usually defined, the IC50 is the concentration needed to halve the response being measured. Usually MIC stands for the lowest concentration found to suppress growth.

Experiment [1] deals with Gram-positive bacteria. As to the kind of experiment: MIC, panel of Gram positive bacteria. Format: cell-based. The procedure: (§1) The MICs of the purified compounds were done according to CLSI guidelines using Mueller Hinton broth (Hi media) against panel of six Gram positive bacteria S.aureus, S.epidermidis, B.cereus, B.subtilis, M.luteus and L.monocytogenes, two Gram negative bacteria E.coli and P.aeruginosa, and four MRSA (Methicillin resistant S.aureus) clinical strain. The stock solution of compounds were made at 10 mg/ml in DMSO. The test compounds (highest concentration 128 μg/ml) were serially diluted in 50 μl of Mueller Hinton broth and 50 μl of bacterial suspension were added to reach the final desired cell density of 5×10^5 CFU ml^−1 in each well of 96 well microtiter plate except the media control. The medium, untreated culture, DMSO, ampicillin and kanamycin were used as controls. […] The MICs were defined as the lowest concentration that inhibited visible growth of bacteria.

In experiment [2] the test system is blood-stage Plasmodium falciparum (3D7 strain). As to the kind of experiment: Antimalarial activity, SYBR green staining-based parasitemia determination. The conditions noted are these: P. falciparum 3D7. The class given is cell-based. The procedure:
The antimalarial activity was carried out on blood-stage Plasmodium falciparum (3D7 strain) with various concentrations ranging from 10 μM to 0.01 μM by 5 SYBR green staining-based parasitemia determination. Parasite cultures were incubated with the test compounds for 60 h under optimal growth conditions, following which the cells were lysed with 0.01% Triton X and stained with SYBR Green I nucleic acid stain (Thermo Fisher Scientific) to estimate parasite growth and inhibition. Fluorescence readings were obtained with a GloMax plate reader (Promega) after 15 min incubation in the dark and raw fluorescence readings were processed. The % growth inhibition values were estimated from comparisons between test and control samples.

Experiment [3] deals with A549 (lung cancer). As to the kind of experiment: MTT cell viability assay. Format: cell-based. The note with it: Homo sapiens, A549, 24 hours treatment. On the procedure:
(§2) MTT assay was used for the study of cell viability, which measured cellular metabolic activity based on the ability of nicotinamide adenine dinucleotide phosphate (NADPH) dependent oxidoreductase enzymes to reduce the yellow tetrazolium salt 3-[4,5-dimethylthiazole-2-yl]-2,5-diphenyltetrazolium bromide (MTT) to purple formazan crystals. The cell lines used for the study were A549 (lung cancer), HeLa (Cervical cancer) and MDA MB-231 (Breast cancer), which were seeded with a density of 10,000 cells/well into 96-well plates and incubated at 37° C. with 5% CO2 for 20 hours. The compounds with different concentrations were used to treat the cells for 24 hours. The medium was replaced with 100 μL of MTT solution (0.5 mg/mL in DMEM) and then incubated for 4 h at 37° C. in dark. Subsequently, MTT solution was removed and the formazan crystals were solubilized by addition of 100 μl DMSO. The optical density was measured at 570 nm by a Biotek synergy H1 microplate reader.
(In general: Formazan colour is commonly taken as a measure of viable cells.)

The subject of experiment [4] is HeLa (Cervical cancer). Description: MTT cell viability assay. Format: cell-based. The conditions noted are these: Homo sapiens, 24 hours treatment. On the procedure:
as §2

The subject of experiment [5] is MDA MB-231 (Breast cancer). Description: MTT cell viability assay. Format: cell-based. The note with it: Homo sapiens, MDA-MB-231, 24 hours treatment. On the procedure: as §2
The subject of experiment [6] is MDA-MB-231, A549 and HeLa. Description: MTT cell viability assay, tested cancer cell lines. The class given is cell-based. The procedure: as §2
Experiment [7] relates to Bacillus cereus ATCC 11778. As to the kind of experiment: MIC, CLSI broth microdilution. The note with it: Mueller Hinton broth, 18 hours at 37° C., highest concentration 128 μg/ml. Format: cell-based. The procedure: as §1
Experiment [8] relates to Bacillus subtilis ATCC 6633. As to the kind of experiment: MIC, CLSI broth microdilution. The class given is cell-based. The note with it: Mueller Hinton broth, 18 hours at 37° C., highest concentration 128 μg/ml. The procedure: as §1
Background: Broth dilution looks for growth in wells or tubes with falling amounts of substance.

Experiment [9] concerns Listeria monocytogenes ATCC 19111. Description: MIC, CLSI broth microdilution. The class given is cell-based. The conditions noted are these: Mueller Hinton broth, 18 hours at 37° C., highest concentration 128 μg/ml. The procedure: as §1
The test system of experiment [10] is Micrococcus luteus ATCC 9341. As to the kind of experiment: MIC, CLSI broth microdilution. The class given is cell-based. The note with it: Mueller Hinton broth, 18 hours at 37° C., highest concentration 128 μg/ml. The procedure: as §1
For experiment [11], the system named is Pseudomonas aeruginosa ATCC 9027. Description: MIC, CLSI broth microdilution. The class given is cell-based. The conditions noted are these: Mueller Hinton broth, 18 hours at 37° C., highest concentration 128 μg/ml. On the procedure: as §1
Experiment [12] concerns Staphylococcus aureus ATCC 9144. As to the kind of experiment: MIC, CLSI broth microdilution. The class given is cell-based. The conditions noted are these: Mueller Hinton broth, 18 hours at 37° C., highest concentration 128 μg/ml. On the procedure:
as §1

Experiment [13] relates to Staphylococcus epidermidis ATCC. As to the kind of experiment: MIC, CLSI broth microdilution. The class given is cell-based. The note with it: Mueller Hinton broth, 18 hours at 37° C., highest concentration 128 μg/ml. The procedure: as §1
Experiment [14] relates to Mycobacterium smegmatis ATCC 607. As to the kind of experiment: MIC, Middlebrook 7H9 medium. Format: cell-based. The note with it: for MIC: Middlebrook 7H9 medium, 48 hours at 37° C., highest concentration 128 μg/ml.
Experiment [15] relates to MRSA_10B. As to the kind of experiment: MIC, CLSI broth microdilution, MRSA clinical strain. The class given is cell-based, Methicillin resistant S.aureus. The conditions noted are these: Mueller Hinton broth, 18 hours at 37° C., highest concentration 128 μg/ml. On the procedure: as §1
In experiment [16] the test system is MRSA_3B. Described as above. The note with it: Mueller Hinton broth, 18 hours at 37° C., highest concentration 128 μg/ml. Format: cell-based, Methicillin resistant S.aureus. The procedure:
as §1

Experiment [17] has as its system MRSA_6B. The experiment is described as above. Format: cell-based, Methicillin resistant S.aureus. The note with it: Mueller Hinton broth, 18 hours at 37° C., highest concentration 128 μg/ml. On the procedure: as §1
The test system of experiment [18] is MRSA_9B. Described as above. The class given is cell-based, Methicillin resistant S.aureus. The conditions noted are these: Mueller Hinton broth, 18 hours at 37° C., highest concentration 128 μg/ml. The procedure:
as §1

For experiment [19], the system named is resistant clinical bacterial strains. Description: MIC, resistant clinical bacterial strains. The class given is cell-based, MRSA (Methicillin resistant S.aureus). On the procedure:
as §1

Experiment [20] deals with Escherichia coli ATCC 8739. As to the kind of experiment: MIC, CLSI broth microdilution. The note with it: ATCC8739, Mueller Hinton broth, 18 hours at 37° C., highest concentration 128 μg/ml. Format: cell-based. On the procedure:
as §1

[21] abbreviates: Bacillus cereus, ATCC11778, read-out: MIC.
Setting [22] is: Bacillus subtilis, ATCC6633, read-out: MIC.
Where [23] appears, read: Listeria monocytogenes, ATCC19111, read-out: MIC.
[24] abbreviates: Micrococcus luteus, ATCC9341, read-out: MIC.
Where [25] appears, read: Staphylococcus aureus, ATCC9144, read-out: MIC.
The mark [26] stands for this setting: Staphylococcus epidermidis, read-out: MIC.
[27] abbreviates: Mycolicibacterium smegmatis, ATCC607, read-out: MIC.
The mark [28] stands for this setting: Staphylococcus aureus, read-out: MIC.

≈ marks a conversion by molar mass, not a printed value. Like-named read-outs stand apart in the source and are kept apart here.

Consider `CC1OC2OC3C(C)(OC4(O)C(=O)c5c(O)cccc5C(=O)C34O)C12O` (stereo not drawn) [Compound C-2], for which the “antibacterial activity against Gram-positive bacteria” value (shortened to “antibacterial activity”) in experiment [1] is reported as “weakly active”. The “antimalarial activity” value in [2] is “moderately active”. The figures for the half-maximal inhibitory concentration (IC50) in [3], in experiment [4] and in experiment [5] were 44.9 µg/mL, 36 µg/mL and 19.1 µg/mL, respectively. Besides, in experiment [6], the “anticancer activity” value is “moderate activity”.

With `CC1(C)S[C@@H]2[C@H](NC(=O)[C@H](N)c3ccccc3)C(=O)N2[C@H]1C(=O)O` [Ampicilli, ampicillin, reference compound], the minimal inhibitory concentration (MIC) amounted to 16 µg/mL (≈ 45.8 µM) in experiment [7]; 0.03 µg/mL (≈ 0.0859 µM) in [8]; 0.03 µg/mL (≈ 0.0859 µM) in [9]; 0.03 µg/mL (≈ 0.0859 µM) in experiment [10]; 2 µg/mL (≈ 5.72 µM) in experiment [11]; 0.03 µg/mL (≈ 0.0859 µM) in [12]. The MIC came to 1 µg/mL (≈ 2.86 µM) in experiment [13]; 64 µg/mL (≈ 183 µM) in [14]; 4 µg/mL (≈ 11.4 µM) in experiment [15]; 8 µg/mL (≈ 22.9 µM) in experiment [16]; 8 µg/mL (≈ 22.9 µM) in experiment [17]; 16 µg/mL (≈ 45.8 µM) in [18].

`CC1OC2OC3C4=C(OC3(C)C12O)C(=O)c1c(O)cccc1C4=O` (stereo not drawn) [Compound C-1]: the minimal inhibitory concentration (MIC) in experiment [7] (setting [21]) is 8 µg/mL (≈ 24.2 µM); in [8] (setting [22]) it was 4 µg/mL (≈ 12.1 µM); in experiment [9] (setting [23]), 2 µg/mL (≈ 6.06 µM); in experiment [10] (setting [24]), 8 µg/mL (≈ 24.2 µM); in [12] (setting [25]), 2 µg/mL (≈ 6.06 µM); in experiment [13] (setting [26]), 2 µg/mL (≈ 6.06 µM). The MIC in experiment [14] (setting [27]) turned out to be 64 µg/mL (≈ 194 µM); in experiment [15] (setting [28]), 4 µg/mL (≈ 12.1 µM); in experiment [16] (setting [28]), 4 µg/mL (≈ 12.1 µM); in experiment [17] (setting [28]) it was 4 µg/mL (≈ 12.1 µM); in [18] (setting [28]) it was 4 µg/mL (≈ 12.1 µM). Further, the “activity against Mycobacterium smegmatis” value in experiment [14] is reported as “weakly active”. Also, the “antibacterial activity” value in experiment [1] is “good antibacterial activity”. Further, the “activity against the resistant clinical bacterial strains” value in experiment [19] is “active”. The EC50 in [2] (Plasmodium falciparum, read-out: antimalarial activity (bound)) is less than 1000 nM. The half-maximal inhibitory concentration (IC50) in experiment [3] was 2.14 µg/mL; in experiment [4] it was 3.53 µg/mL; in experiment [5], 1.79 µg/mL; in experiment [6] (read-out: IC50 value range over the tested cancer cell lines), 1.79 to 8.82 µg/mL.

Consider `CC(C)Cc1nc(C(C)C(=O)O)c(C(C)C)n(O)c1=O` (stereo not drawn) [Compound C-4], for which the MIC was 128 µg/mL (≈ 453 µM) in experiment [7] (setting [21]); 128 µg/mL (≈ 453 µM) in [8] (setting [22]); 128 µg/mL (≈ 453 µM) in experiment [9] (setting [23]); 64 µg/mL (≈ 227 µM) in experiment [10] (setting [24]); 128 µg/mL (≈ 453 µM) in experiment [12] (setting [25]); 64 µg/mL (≈ 227 µM) in [13] (setting [26]). In addition, the MIC in [15] (setting [28]), in experiment [16] (setting [28]), in [17] (setting [28]) and in experiment [18] (setting [28]) was 128 µg/mL (≈ 453 µM) throughout. Also, in [1], the “antibacterial activity” value is recorded as “weakly active”. Also, the “antimalarial activity” value in experiment [2] is “moderately active”. Moreover, the IC50 in [3] came to 40.2 µg/mL; in experiment [4] it was 15.4 µg/mL; in experiment [5], 14.1 µg/mL. In addition, in experiment [6], the “anticancer activity” value was “moderate activity”.

As for `NC[C@H]1O[C@H](O[C@H]2[C@H](O)[C@@H](O[C@H]3O[C@H](CO)[C@@H](O)[C@H](N)[C@H]3O)[C@H](N)C[C@@H]2N)[C@H](O)[C@@H](O)[C@@H]1O` [Kanamycin, kanamycin, reference compound], the MIC stood at 2 µg/mL (≈ 4.13 µM) in [7] (setting [21]); 0.5 µg/mL (≈ 1.03 µM) in [8] (setting [22]); 8 µg/mL (≈ 16.5 µM) in [20]; 1 µg/mL (≈ 2.06 µM) in experiment [9] (setting [23]); 8 µg/mL (≈ 16.5 µM) in experiment [10] (setting [24]); 8 µg/mL (≈ 16.5 µM) in experiment [11] (Pseudomonas aeruginosa, ATCC9027, read-out: MIC). Moreover, the MIC in experiment [12] (setting [25]) was determined as 8 µg/mL (≈ 16.5 µM); in experiment [13] (setting [26]), 1 µg/mL (≈ 2.06 µM); in experiment [14] (setting [27]), 0.25 µg/mL (≈ 0.516 µM); in experiment [18] (setting [28]), 128 µg/mL (≈ 264 µM).
